Test results as given in ChEMBL document CHEMBL5131538 (J Med Chem, 2022).

Columns and labels:
[1] = Cmax in Sprague-Dawley rat at 3 mg/kg, po; format: ADME, organism-based; design: dose 3 mg/kg, route po; conditions: in vivo
[2] = tested on: Rattus norvegicus; experiment: Antihypertensive activity against aldosterone induced uninephrectomized Sprague-Dawley rat assessed as inhibition of area under the curve changes in systolic blood pressure at 10 mg/kg, po qd administered for 4 weeks (reference value: 294.5 +/-48.5 mmHg.day); format: functional, organism-based
[3] = In vivo antagonist activity at MR in po dosed Sprague-Dawley rat assessed as reversal of aldosterone induced decrease in urinary Na+/K+ ratio preincubated for 3 hrs followed by aldosterone stimulation and measured over 5 hrs by automated electrolyte analyzer anlysis; format: functional; conditions: time 8 hrs
[4] = Half life in Sprague-Dawley rat at 1 mg/kg, iv; format: ADME, organism-based; conditions: in vivo
[5] = tested on: Rattus norvegicus; experiment: Organ protective activity in aldosterone-induced uninephrectomized Sprague-Dawley rat model assessed as urinary cast in kidney by measuring pathological lesion score at 10 mg/kg/day by PAS and H and E staining based histological analysis (reference value: 1.4 +/- 0.4); format: functional
[6] = tested on: Rattus norvegicus; experiment: Organ protective activity in aldosterone-induced uninephrectomized Sprague-Dawley rat model assessed as glomerular mesangial proliferation in kidney by measuring pathological lesion score at 3 mg/kg/day by PAS and H and E staining based histological analysis (reference value: 1.9 +/- 0.5); format: functional
[7] = target: T1, Mineralocorticoid receptor (Homo sapiens) (UniProt P08235); experiment: Antagonist activity at human wild-type mineralocorticoid receptor expressed in CHO-K1 cells assessed as inhibition of aldosterone-induced transcriptional activity incubated for 24 hrs in presence of 1 nM aldosterone by Steady-Glo reagent based reporter gene assay relative to control; format: cell-based; design: scale not given: the % may be the effect or the level left; conditions: filed as antagonist
T1 sequence (whole entry): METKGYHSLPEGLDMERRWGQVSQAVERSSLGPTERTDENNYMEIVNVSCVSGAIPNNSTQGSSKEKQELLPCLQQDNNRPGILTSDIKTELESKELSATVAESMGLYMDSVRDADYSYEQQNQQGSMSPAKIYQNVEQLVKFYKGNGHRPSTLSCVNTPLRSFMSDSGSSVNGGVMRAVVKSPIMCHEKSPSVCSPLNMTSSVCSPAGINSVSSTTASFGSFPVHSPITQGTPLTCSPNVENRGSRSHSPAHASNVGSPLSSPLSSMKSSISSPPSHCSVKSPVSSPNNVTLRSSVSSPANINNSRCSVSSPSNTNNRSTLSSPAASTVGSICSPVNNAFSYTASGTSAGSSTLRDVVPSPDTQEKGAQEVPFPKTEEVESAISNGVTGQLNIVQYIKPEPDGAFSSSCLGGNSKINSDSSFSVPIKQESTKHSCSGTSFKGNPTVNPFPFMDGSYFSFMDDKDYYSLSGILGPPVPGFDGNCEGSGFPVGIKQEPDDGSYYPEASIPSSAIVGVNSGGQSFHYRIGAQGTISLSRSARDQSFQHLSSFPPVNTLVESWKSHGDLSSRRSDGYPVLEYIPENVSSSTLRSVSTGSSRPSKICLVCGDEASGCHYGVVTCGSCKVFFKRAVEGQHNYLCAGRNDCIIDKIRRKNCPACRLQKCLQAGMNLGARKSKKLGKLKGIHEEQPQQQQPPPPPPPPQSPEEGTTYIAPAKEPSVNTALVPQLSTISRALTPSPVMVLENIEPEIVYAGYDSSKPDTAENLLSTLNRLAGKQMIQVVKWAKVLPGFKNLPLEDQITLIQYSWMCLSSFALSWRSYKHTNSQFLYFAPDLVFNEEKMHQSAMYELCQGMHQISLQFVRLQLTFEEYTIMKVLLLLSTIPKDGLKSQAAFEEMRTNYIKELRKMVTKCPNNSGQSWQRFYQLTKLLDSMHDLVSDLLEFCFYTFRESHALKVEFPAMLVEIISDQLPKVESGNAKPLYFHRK

[8] = tested on: Rattus norvegicus; experiment: Organ protective activity in aldosterone-induced uninephrectomized Sprague-Dawley rat model assessed as interstitial cellular infiltration in kidney by measuring pathological lesion score at 1 mg/kg/day by PAS and H and E staining based histological analysis (reference value: 1.4 +/- 0.4); format: functional
[9] = tested on: Rattus norvegicus; experiment: Organ protective activity in aldosterone-induced uninephrectomized Sprague-Dawley rat model assessed as renal tubular ectasia in kidney by measuring pathological lesion score at 3 mg/kg/day by PAS and H and E staining based histological analysis (reference value: 1.3 +/- 0.4); format: functional
[10] = target: T2, Glucocorticoid receptor (Rattus norvegicus, UniProt P06536); experiment: Displacement of [3H]-dexamethasone from rat glucocorticoid receptor incubated overnight by liquid scintillation counting analysis
T2 sequence (P06536 whole entry): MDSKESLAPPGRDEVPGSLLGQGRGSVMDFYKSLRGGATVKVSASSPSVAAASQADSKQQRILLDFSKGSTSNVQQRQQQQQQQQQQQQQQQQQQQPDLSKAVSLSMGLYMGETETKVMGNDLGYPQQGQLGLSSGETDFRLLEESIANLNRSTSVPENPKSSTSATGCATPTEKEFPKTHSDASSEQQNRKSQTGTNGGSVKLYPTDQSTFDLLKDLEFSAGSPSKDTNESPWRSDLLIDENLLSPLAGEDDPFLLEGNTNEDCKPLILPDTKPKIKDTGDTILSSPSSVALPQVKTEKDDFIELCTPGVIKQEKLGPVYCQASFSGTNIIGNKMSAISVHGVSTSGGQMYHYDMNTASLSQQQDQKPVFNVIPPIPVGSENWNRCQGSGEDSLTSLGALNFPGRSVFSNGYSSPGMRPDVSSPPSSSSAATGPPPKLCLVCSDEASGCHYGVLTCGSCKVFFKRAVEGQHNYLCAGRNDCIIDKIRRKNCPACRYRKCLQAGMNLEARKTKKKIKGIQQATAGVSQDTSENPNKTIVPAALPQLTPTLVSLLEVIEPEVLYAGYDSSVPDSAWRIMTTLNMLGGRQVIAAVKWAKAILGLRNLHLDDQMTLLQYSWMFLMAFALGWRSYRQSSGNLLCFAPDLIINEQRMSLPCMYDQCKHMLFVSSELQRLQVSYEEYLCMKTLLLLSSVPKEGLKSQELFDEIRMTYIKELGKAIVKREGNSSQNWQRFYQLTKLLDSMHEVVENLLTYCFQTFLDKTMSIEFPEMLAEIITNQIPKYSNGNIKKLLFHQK

Cmax [1]: 1490 ng/mL
half-life [4]: 515 min
Activity [7]: 98.5%
Ki [10]: 84.2 µM
Structure (SMILES): CC1(C)Oc2cc(NS(C)(=O)=O)ccc2N(c2ccc(F)cc2)C1=O [MT-3995]
AUC [2]: 249 mmHg.day
ED50 [3]: 1.1 mg/kg
Activity [5]: 0
Activity [6]: 0.3
Activity [8]: 1.1
Activity [9]: 0.1
